Measurements: ChEMBL document CHEMBL1201862, “PubChem BioAssay data set” (2004)
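How tested: cells in 96-well plates exposed to compound for 48 hours at five concentrations. GI50 = concentration required for 50% inhibition of growth.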 Activity calls are given as the source filed them. Cut-off read from the data, not from the text of the source: active = GI50 up to about 1.1 µM and inactive = higher.

Legend:
Test in all cases: NCI-60 cell line screen, 48 h
MOLT-4 = tested on: MOLT-4
HT-29 = tested on: HT-29
SK-MEL-5 = tested on: SK-MEL-5
OVCAR-3 = tested on: OVCAR-3
COLO 205 = tested on: COLO 205
TK-10 = tested on: TK-10
SR = tested on: SR
SF-295 = tested on: SF-295
HL-60 = tested on: HL-60
UO-31 = tested on: UO-31
HCT-116 = tested on: HCT-116
RXF 393 = tested on: RXF 393
U-251 = tested on: U-251
M19-MEL = tested on: M19-MEL
SK-OV-3 = tested on: SK-OV-3
NCI-H23 = tested on: NCI-H23
M14 = tested on: M14
HCT-15 = tested on: HCT-15
ACHN = tested on: ACHN

| SMILES | GI50 (MOLT-4) | GI50 (HT-29) | GI50 (SK-MEL-5) | GI50 (OVCAR-3) | GI50 (COLO 205) | GI50 (TK-10) | GI50 (SR) | GI50 (SF-295) | GI50 (HL-60) | GI50 (UO-31) | GI50 (HCT-116) | GI50 (RXF 393) | GI50 (U-251) | GI50 (M19-MEL) | GI50 (SK-OV-3) | GI50 (NCI-H23) | GI50 (M14) | GI50 (HCT-15) [µM] | GI50 (ACHN) |
| --- | --- | --- | --- | --- | --- | --- | --- | --- | --- | --- | --- | --- | --- | --- | --- | --- | --- | --- | --- |
| O=C(O)c1c[nH]cc1C(=O)O | > 100 µM (inactive) | > 100 µM (inactive) | > 100 µM (inactive) | > 100 µM (inactive) | > 100 µM (inactive) | > 100 µM (inactive) | > 100 µM (inactive) | > 100 µM (inactive) | > 100 µM (inactive) | > 100 µM (inactive) | > 100 µM (inactive) | > 100 µM (inactive) | > 100 µM (inactive) | > 100 µM (inactive) | > 100 µM (inactive) | > 100 µM (inactive) | > 100 µM (inactive) | > 100 | – |
| CC(C)c1cccc(C(C)C)c1NC(=O)C(=O)C(C(=O)c1ccccc1-c1ccccc1)C1OC(=O)c2ccccc21 (centres undefined) | 11.6 µM (inactive) | 17.9 µM (inactive) | 15.5 µM (inactive) | – | 30.9 µM (inactive) | 26.5 µM (inactive) | 22.6 µM (inactive) | 16.6 µM (inactive) | – | 18.7 µM (inactive) | 24.9 µM (inactive) | 12.9 µM (inactive) | 12.8 µM (inactive) | 17.1 µM (inactive) | – | 1.25 µM (inactive) | – | 18.4 | 32.3 µM (inactive) |
| CCN(CCCl)CCNc1c2ccccc2nc2ccc(OC)cc12 | 0.0426 µM (active) | 0.267 µM (active) | 1.12 µM (active) | 1.38 µM (inactive) | 0.136 µM (active) | 1.58 µM (inactive) | – | 0.766 µM (active) | 0.199 µM (active) | 1.44 µM (inactive) | 0.236 µM (active) | 0.54 µM (active) | 0.906 µM (active) | 0.703 µM (active) | 1.35 µM (inactive) | 0.514 µM (active) | 1.18 µM (inactive) | 0.731 | 0.127 µM (active) |
| CCc1cccc(C)c1NC(=O)CCc1nnc(S)[nH]1 | > 100 µM (inactive) | > 100 µM (inactive) | > 100 µM (inactive) | > 100 µM (inactive) | – | > 100 µM (inactive) | > 100 µM (inactive) | > 100 µM (inactive) | > 100 µM (inactive) | > 100 µM (inactive) | > 100 µM (inactive) | > 100 µM (inactive) | > 100 µM (inactive) | > 100 µM (inactive) | > 100 µM (inactive) | > 100 µM (inactive) | > 100 µM (inactive) | > 100 | > 100 µM (inactive) |
| CN1CCc2c1nc(-c1ccc([N+](=O)[O-])cc1)c1c2N(C)CC1 | 91.2 µM (inactive) | 25.5 µM (inactive) | 97.3 µM (inactive) | 8.15 µM (inactive) | 54.6 µM (inactive) | > 100 µM (inactive) | – | > 100 µM (inactive) | 60.1 µM (inactive) | 33.1 µM (inactive) | 15.9 µM (inactive) | 35.2 µM (inactive) | > 100 µM (inactive) | > 100 µM (inactive) | > 100 µM (inactive) | > 100 µM (inactive) | 77.6 µM (inactive) | 99.5 | > 100 µM (inactive) |
| OCc1ccc2[n+](c1)CCC1c3ccccc3NC21 (centres undefined) | > 300 µM (inactive) | > 300 µM (inactive) | 86.9 µM (inactive) | 240 µM (inactive) | > 300 µM (inactive) | > 300 µM (inactive) | > 300 µM (inactive) | > 300 µM (inactive) | > 300 µM (inactive) | – | > 300 µM (inactive) | > 300 µM (inactive) | > 300 µM (inactive) | 119 µM (inactive) | > 300 µM (inactive) | > 300 µM (inactive) | – | > 300 | > 300 µM (inactive) |
